# Columns and labels:
# Format in all cases: biochemical
# Kdr = target: T1, Kdr (Homo sapiens, UniProt P35968); assay: Z'-Lyte FRET kinase assay (Invitrogen), Kdr; conditions: read-out: IC50, activity toward kinase Kdr
# T1 construct: purchased Invitrogen (assay run by Invitrogen)
# MAP2K1 = target: T2, MAP2K1 (Homo sapiens, UniProt Q02750); assay: Z'-Lyte FRET kinase assay (Invitrogen), MAP2K1; conditions: read-out: IC50, activity toward kinase MAP2K1
# T2 construct: purchased Invitrogen (assay run by Invitrogen)
# T2 sequence (Q02750 whole entry): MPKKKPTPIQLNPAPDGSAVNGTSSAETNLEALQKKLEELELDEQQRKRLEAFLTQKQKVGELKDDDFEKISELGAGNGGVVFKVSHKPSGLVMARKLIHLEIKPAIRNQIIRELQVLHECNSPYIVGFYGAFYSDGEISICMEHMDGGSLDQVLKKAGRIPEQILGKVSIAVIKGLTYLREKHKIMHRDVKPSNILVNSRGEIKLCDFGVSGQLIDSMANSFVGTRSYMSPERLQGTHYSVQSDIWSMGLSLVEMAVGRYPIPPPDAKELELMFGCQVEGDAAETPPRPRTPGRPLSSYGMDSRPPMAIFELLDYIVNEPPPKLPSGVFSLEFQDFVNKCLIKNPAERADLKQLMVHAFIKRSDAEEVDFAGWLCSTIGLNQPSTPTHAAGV
# Stk6 = target: T3, Stk6 (Homo sapiens, UniProt O14965); assay: Z'-Lyte FRET kinase assay (Invitrogen), Stk6; conditions: read-out: IC50, activity toward kinase Stk6
# T3 construct: purchased Invitrogen (Carlsbad, Calif.), screening service
# T3 sequence (O14965 1-403): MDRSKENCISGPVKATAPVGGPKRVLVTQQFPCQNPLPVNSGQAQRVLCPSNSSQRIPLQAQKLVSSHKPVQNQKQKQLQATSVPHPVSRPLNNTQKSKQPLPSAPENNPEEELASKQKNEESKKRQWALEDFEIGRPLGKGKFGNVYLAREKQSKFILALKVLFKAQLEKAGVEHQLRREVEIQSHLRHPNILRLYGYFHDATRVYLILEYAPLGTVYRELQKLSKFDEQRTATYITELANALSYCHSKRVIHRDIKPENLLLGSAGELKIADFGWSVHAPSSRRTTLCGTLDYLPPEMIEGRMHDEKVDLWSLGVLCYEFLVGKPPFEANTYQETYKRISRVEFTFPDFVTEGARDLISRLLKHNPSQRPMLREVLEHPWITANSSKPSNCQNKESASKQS
# IKK beta = target: T4, IKK beta (Homo sapiens, UniProt O14920); assay: AlphaScreen kinase assay, IKK beta; conditions: read-out: IC50, activity toward kinase IKK beta
# T4 sequence (O14920 1-756): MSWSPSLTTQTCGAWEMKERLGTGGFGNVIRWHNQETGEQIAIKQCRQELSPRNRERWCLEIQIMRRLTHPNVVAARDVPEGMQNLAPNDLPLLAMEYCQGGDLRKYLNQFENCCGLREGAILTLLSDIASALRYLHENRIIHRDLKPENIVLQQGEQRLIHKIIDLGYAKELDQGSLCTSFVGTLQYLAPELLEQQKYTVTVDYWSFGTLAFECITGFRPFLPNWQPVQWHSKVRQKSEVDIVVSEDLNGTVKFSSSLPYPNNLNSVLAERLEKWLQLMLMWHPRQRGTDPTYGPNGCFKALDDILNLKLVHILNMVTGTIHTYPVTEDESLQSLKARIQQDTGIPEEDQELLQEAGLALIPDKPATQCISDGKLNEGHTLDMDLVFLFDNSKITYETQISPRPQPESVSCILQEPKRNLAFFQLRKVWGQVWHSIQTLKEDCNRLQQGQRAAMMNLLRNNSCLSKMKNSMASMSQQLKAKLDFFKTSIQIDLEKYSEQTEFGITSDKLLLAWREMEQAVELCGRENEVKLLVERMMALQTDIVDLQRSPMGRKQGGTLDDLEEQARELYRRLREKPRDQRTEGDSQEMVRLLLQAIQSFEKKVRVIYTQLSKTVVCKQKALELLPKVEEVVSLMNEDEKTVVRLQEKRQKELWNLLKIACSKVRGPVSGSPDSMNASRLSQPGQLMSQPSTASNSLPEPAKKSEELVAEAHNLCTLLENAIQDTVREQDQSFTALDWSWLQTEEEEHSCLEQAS
# MAP4K4 = MAP4K4 (Homo sapiens, UniProt O95819); assay: AlphaScreen kinase assay, MAP4K4; conditions: read-out: IC50, activity toward kinase MAP4K4
# B-Raf V600E = target: T5, B-Raf V600E (Homo sapiens, UniProt P15056, V600E); assay: AlphaScreen kinase assay, B-Raf V600E; conditions: read-out: IC50, activity toward kinase B-Raf V600E
# T5 construct: P4254. pFastBacBD-CDC37 BRAF D437-K722-X, V600E; His6 with pFastBac HT leader (TEV site) (N); made in house; host or cells: Sf9 (baculovirus; chaperone CDC37 co-expressed)
# T5 sequence (P15056 with tags, fused parts or gaps V600E): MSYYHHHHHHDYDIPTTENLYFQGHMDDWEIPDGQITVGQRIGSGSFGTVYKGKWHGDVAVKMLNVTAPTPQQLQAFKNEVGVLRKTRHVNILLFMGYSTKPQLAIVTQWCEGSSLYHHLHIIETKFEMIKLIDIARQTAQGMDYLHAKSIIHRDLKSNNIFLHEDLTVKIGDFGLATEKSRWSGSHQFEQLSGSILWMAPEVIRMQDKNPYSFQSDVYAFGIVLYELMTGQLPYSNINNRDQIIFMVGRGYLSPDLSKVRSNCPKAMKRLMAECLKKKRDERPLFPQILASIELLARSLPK
# B-Raf = target: T6, B-Raf (Homo sapiens, UniProt P15056); assay: AlphaScreen kinase assay, B-Raf; conditions: read-out: IC50, activity toward kinase B-Raf
# T6 construct: purchased Upstate Biotechnology
# FGFR1 = target: T7, FGFR1 (Homo sapiens, UniProt P11362, C488A/C584S); assay: AlphaScreen kinase assay, FGFR1; conditions: read-out: IC50, activity toward kinase FGFR
# T7 construct: P1351.pET N6 BI-PTP FGFR A458-E765-X C488A, C584S; made in house; host or cells: E. coli (PTP1B co-expressed)
# T7 sequence (P11362 458-765 C488A/C584S): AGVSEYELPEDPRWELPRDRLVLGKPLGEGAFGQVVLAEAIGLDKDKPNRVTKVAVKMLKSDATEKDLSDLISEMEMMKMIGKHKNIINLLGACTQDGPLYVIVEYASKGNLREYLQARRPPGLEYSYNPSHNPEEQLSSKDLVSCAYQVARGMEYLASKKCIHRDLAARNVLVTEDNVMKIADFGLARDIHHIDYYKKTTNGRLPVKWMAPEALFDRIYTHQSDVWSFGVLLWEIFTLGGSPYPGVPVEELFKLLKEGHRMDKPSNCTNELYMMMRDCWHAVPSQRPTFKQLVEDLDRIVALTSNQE
# c-Raf-1 = target: T8, c-Raf-1 (Homo sapiens, UniProt P04049); assay: AlphaScreen kinase assay, c-Raf-1; conditions: read-out: IC50, activity toward kinase c-Raf-1
# T8 construct: purchased Upstate Biotechnology
# T8 sequence (P04049 whole entry): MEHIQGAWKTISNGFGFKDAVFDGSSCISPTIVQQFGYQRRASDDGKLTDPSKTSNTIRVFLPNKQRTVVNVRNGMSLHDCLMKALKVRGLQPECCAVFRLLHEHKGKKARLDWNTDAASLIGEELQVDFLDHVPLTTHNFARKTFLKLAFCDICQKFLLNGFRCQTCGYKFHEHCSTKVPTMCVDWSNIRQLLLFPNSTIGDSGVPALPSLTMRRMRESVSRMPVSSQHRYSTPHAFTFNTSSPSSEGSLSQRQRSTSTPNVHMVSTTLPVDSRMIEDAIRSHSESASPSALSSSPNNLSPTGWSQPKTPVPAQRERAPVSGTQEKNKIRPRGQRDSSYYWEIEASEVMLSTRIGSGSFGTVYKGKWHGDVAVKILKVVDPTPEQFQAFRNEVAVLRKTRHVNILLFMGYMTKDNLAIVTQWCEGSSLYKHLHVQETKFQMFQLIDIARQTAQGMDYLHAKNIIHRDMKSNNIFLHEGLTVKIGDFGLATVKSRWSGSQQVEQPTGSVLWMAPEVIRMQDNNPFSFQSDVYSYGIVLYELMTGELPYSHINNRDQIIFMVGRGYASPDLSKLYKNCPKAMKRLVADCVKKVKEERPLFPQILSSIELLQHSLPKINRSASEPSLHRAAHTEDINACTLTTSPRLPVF
# Akt3 = Akt3 (Homo sapiens, UniProt Q9Y243); assay: AlphaScreen kinase assay, Akt3; conditions: read-out: IC50, activity toward kinase Akt3
# Akt3, sequence (Q9Y243 whole entry): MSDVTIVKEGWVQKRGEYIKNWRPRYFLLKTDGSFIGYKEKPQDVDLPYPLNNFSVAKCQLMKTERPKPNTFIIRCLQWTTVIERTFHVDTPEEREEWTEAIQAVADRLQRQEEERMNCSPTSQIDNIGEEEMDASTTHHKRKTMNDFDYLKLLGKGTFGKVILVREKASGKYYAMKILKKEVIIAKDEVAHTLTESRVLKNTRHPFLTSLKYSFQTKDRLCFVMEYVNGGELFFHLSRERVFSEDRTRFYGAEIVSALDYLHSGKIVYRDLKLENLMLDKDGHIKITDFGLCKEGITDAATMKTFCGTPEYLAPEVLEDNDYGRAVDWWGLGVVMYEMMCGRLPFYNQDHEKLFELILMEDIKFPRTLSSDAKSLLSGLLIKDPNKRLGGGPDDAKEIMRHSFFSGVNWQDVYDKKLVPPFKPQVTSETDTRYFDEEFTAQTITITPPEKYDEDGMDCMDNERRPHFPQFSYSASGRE
# Summary of the method: (§1)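 AlphaScreen, biotin-peptide substrate; streptavidin donor/anti-phospho acceptor beads; decreased emission = inhibition. Cpds 20 mM DMSO stock, 1:3 x 8 conc.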
# Ret = target: T9, Ret (Homo sapiens, UniProt P07949); assay: AlphaScreen kinase assay, Ret; conditions: read-out: IC50, activity toward kinase Ret
# T9 construct: P1378.pET-SF BI-PTP RET H661-R1012 HIS; made in house
# T9 sequence (P07949 with tags, fused parts or gaps): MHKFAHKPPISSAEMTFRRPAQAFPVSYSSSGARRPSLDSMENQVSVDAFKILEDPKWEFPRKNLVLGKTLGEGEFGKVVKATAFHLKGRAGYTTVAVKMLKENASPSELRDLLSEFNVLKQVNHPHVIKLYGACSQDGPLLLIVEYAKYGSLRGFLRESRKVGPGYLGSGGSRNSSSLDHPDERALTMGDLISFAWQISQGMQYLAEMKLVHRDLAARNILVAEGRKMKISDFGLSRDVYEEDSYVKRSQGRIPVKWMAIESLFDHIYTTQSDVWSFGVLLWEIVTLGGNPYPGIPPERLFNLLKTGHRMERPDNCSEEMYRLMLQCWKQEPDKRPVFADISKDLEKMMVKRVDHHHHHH
# Jnk3 = target: T10, Jnk3 (Homo sapiens, UniProt P53779); assay: AlphaScreen kinase assay, Jnk3; conditions: read-out: IC50, activity toward kinase Jnk3
# T10 construct: purchased Upstate Biotechnology
# T10 sequence (P53779 whole entry): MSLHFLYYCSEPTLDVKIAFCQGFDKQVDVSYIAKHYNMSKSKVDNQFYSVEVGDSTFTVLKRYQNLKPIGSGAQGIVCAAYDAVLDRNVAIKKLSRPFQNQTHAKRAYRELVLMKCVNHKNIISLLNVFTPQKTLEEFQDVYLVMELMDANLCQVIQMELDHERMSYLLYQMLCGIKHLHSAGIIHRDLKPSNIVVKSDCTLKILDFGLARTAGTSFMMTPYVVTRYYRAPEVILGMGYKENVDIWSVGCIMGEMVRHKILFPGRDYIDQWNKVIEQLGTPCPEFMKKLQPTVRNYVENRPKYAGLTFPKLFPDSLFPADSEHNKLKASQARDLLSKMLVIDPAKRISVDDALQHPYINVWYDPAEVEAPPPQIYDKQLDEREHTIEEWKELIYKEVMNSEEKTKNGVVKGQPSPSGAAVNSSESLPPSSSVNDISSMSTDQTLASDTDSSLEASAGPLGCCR
# Kit = target: T11, Kit (Homo sapiens, UniProt P10721); assay: AlphaScreen kinase assay, Kit; conditions: read-out: IC50, activity toward kinase Kit
# T11 construct: P1332.N6 BI PTP KIT M552-K948-X COD; His6 (N); made in house; host or cells: E. coli (PTP1B co-expressed)
# T11 sequence (P10721 with tags, fused parts or gaps): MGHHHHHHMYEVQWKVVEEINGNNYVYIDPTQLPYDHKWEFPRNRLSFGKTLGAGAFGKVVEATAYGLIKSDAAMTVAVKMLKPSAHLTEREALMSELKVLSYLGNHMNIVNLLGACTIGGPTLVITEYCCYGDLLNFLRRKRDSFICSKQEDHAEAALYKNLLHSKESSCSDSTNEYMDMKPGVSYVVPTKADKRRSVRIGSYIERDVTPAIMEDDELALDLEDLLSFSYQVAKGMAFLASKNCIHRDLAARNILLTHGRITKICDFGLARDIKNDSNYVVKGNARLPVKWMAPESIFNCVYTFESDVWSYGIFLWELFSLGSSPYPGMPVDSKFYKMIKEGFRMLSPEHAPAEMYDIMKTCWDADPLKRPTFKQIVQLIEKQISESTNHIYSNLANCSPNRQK
# Flt1 = target: T12, Flt1 (Homo sapiens, UniProt P17948); assay: AlphaScreen kinase assay, Flt1; conditions: read-out: IC50, activity toward kinase Flt1
# T12 construct: P1826.pETN6 BI-PTP FLT1 M799-D1165-X WT; His6 (N); made in house; host or cells: E. coli (PTP1B co-expressed)
# T12 sequence (P17948 with tags, fused parts or gaps): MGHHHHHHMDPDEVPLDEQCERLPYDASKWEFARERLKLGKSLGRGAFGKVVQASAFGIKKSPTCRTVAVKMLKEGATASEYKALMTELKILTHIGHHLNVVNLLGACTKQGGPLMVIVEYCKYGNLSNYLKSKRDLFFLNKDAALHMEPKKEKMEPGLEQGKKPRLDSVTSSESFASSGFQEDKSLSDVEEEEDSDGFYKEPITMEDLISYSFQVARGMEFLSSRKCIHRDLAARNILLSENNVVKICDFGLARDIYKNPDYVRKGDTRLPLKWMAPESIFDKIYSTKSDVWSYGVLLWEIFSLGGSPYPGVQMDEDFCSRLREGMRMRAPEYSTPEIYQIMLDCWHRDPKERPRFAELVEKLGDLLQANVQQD
# Met = target: T13, Met (Homo sapiens, UniProt P08581); assay: AlphaScreen kinase assay, Met; conditions: read-out: IC50, activity toward kinase Met
# T13 construct: P1818.pETN6 BI-PTP MET G1056-G1364-X WT; His6 (N); made in house; host or cells: E. coli (PTP1B co-expressed)
# T13 sequence (P08581 with tags, fused parts or gaps): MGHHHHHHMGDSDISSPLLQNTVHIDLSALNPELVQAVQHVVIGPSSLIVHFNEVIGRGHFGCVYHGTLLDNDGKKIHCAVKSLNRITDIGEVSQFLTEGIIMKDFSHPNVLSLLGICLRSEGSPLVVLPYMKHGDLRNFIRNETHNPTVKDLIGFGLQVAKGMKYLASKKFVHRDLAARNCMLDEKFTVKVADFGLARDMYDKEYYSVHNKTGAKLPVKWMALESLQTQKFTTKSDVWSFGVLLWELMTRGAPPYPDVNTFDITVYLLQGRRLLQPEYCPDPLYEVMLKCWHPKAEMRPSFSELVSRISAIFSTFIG
# Summary of the method: as §1
# Btk = target: T14, Btk (Homo sapiens, UniProt Q06187); assay: Z'-Lyte FRET kinase assay (Invitrogen), Btk; conditions: read-out: IC50, activity toward kinase Btk
# T14 construct: purchased Invitrogen (assay run by Invitrogen)
# T1 sequence (P35968 20-1356): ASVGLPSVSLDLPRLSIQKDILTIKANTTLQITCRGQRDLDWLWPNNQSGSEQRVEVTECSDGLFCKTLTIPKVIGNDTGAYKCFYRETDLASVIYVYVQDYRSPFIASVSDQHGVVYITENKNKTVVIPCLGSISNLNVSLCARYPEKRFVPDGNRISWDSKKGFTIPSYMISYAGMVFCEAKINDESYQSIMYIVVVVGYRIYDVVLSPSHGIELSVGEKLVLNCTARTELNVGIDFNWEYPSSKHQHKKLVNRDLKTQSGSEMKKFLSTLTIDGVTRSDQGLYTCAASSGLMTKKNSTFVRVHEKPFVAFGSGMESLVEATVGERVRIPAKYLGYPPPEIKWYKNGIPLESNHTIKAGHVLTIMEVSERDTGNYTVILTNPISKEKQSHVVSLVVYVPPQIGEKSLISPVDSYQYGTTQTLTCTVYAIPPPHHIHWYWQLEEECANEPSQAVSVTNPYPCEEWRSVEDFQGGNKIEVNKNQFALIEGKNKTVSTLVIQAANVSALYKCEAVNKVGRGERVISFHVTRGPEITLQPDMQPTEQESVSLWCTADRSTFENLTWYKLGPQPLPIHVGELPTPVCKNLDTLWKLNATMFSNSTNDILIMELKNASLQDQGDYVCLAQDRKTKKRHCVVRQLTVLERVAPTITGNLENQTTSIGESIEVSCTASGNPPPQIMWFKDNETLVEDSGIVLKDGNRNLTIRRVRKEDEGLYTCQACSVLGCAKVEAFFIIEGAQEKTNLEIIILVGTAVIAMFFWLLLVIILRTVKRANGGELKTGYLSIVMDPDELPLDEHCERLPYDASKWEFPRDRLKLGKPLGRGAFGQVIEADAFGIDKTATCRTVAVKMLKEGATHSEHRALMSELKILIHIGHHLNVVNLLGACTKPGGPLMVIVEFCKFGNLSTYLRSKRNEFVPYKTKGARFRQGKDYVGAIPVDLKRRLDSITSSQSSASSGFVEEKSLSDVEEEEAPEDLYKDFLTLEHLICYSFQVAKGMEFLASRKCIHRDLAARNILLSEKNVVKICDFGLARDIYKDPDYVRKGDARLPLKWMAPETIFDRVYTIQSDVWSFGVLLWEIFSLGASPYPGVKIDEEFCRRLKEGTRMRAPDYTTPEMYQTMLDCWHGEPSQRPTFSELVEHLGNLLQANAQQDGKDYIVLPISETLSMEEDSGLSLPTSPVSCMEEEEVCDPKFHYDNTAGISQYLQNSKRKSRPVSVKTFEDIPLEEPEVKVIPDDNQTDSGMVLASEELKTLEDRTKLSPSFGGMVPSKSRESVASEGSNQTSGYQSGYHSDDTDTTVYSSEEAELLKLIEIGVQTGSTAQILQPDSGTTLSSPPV
IC50 (Kdr) [µM],IC50 (Stk6) [µM],IC50 (IKK beta) [µM],IC50 (Kit) [µM],SMILES,also measured
≤ 10,–,≤ 10,≤ 10,CN(C)c1ccc(Nc2cnc3[nH]ccc3c2)cc1 [Compound P-0962],IC50 (B-Raf V600E): ≤ 10 µM; IC50 (Jnk3): ≤ 10 µM; IC50 (Flt1): ≤ 10 µM; IC50 (Akt3): ≤ 10 µM; IC50 (Met): ≤ 10 µM
≤ 10,≤ 10,≤ 10,–,CS(=O)(=O)c1ccc(-c2c[nH]c3ncccc23)cc1 [Compound P-0177],IC50 (MAP2K1): ≤ 10 µM; IC50 (Flt1): ≤ 10 µM
–,–,≤ 10,≤ 10,CS(=O)(=O)c1ccc(-c2cnc3[nH]ccc3c2)cc1 [Compound P-0682],IC50 (Jnk3): ≤ 10 µM; IC50 (Ret): ≤ 10 µM
≤ 10,≤ 10,≤ 10,≤ 10,c1cc2cc(-c3ccsc3)cnc2[nH]1 [Compound P-0133],IC50 (Jnk3): ≤ 10 µM
–,≤ 10,≤ 10,–,CCS(=O)(=O)c1ccc(-c2c[nH]c3ncccc23)cc1 [Compound P-0272],–
≤ 10,≤ 10,≤ 10,≤ 10,c1csc(-c2cnc3[nH]ccc3c2)c1 [Compound P-0179],IC50 (Jnk3): ≤ 10 µM; IC50 (Ret): ≤ 10 µM

# Further lines, the molecule ahead of its results:
SMILES,IC50 (Kdr) [µM],IC50 (Stk6) [µM],IC50 (IKK beta) [µM],IC50 (Kit) [µM],also measured
Cc1ccc(-c2ccnc3[nH]ccc23)cc1N [Compound P-0111],≤ 10,≤ 10,≤ 10,–,IC50 (MAP2K1): ≤ 10 µM
CCCNS(=O)(=O)c1ccc(F)c(C(=O)c2c[nH]c3ncc(-c4cccnc4)cc23)c1F [Compound P-0896],–,–,≤ 10,–,IC50 (MAP4K4): ≤ 10 µM; IC50 (B-Raf V600E): ≤ 10 µM; IC50 (B-Raf): ≤ 10 µM; IC50 (FGFR1): ≤ 10 µM; IC50 (c-Raf-1): ≤ 10 µM
C(#Cc1ccnc2[nH]ccc12)c1ccccc1 [Compound P-0436],–,≤ 10,≤ 10,–,IC50 (Akt3): ≤ 10 µM
Nc1cccc(C(=O)c2c[nH]c3ncccc23)c1 [Compound P-0096],≤ 10,–,≤ 10,–,IC50 (FGFR1): ≤ 10 µM; IC50 (Ret): ≤ 10 µM
C=Cc1ccc(-c2ccnc3[nH]ccc23)cc1 [Compound P-0098],≤ 10,≤ 10,≤ 10,–,IC50 (MAP2K1): ≤ 10 µM
c1ccc2sc(-c3ccnc4[nH]ccc34)cc2c1 [Compound P-0404],–,–,≤ 10,≤ 10,IC50 (FGFR1): ≤ 10 µM; IC50 (Flt1): ≤ 10 µM; IC50 (Akt3): ≤ 10 µM
COc1cccc(-c2c[nH]c3ncccc23)c1 [Compound P-0216],≤ 10,–,≤ 10,≤ 10,–
Cc1nc(-c2ccnc3[nH]ccc23)no1 [Compound P-0163],≤ 10,≤ 10,≤ 10,–,–
Cc1cc(-c2c(C)[nH]c3ncccc23)ccc1F [Compound P-0376],≤ 10,–,≤ 10,–,–
Fc1cc(F)cc(-c2ccnc3[nH]cc(Sc4ccc(Cl)cc4)c23)c1 [Compound P-0172],≤ 10,≤ 10,≤ 10,–,–
Clc1ccc(-c2ccnc3[nH]ccc23)cn1 [Compound P-0127],≤ 10,≤ 10,≤ 10,≤ 10,IC50 (Flt1): ≤ 10 µM; IC50 (Akt3): ≤ 10 µM
N#CCc1ccc(-c2c[nH]c3ncccc23)cc1 [Compound P-0164],≤ 10,≤ 10,≤ 10,–,–
COc1cccc(C(=O)c2c[nH]c3nccc(-c4ccc(C(N)=O)cc4)c23)c1 [Compound P-0073],≤ 10,–,≤ 10,–,IC50 (Btk): ≤ 10 µM; IC50 (B-Raf V600E): ≤ 10 µM; IC50 (FGFR1): ≤ 10 µM; IC50 (Ret): ≤ 10 µM

# Source: patent US8415469B2, “Compounds and methods for kinase modulation, and indications therefor” (Plexxikon Inc., priority 2005, dated 2013)
